From ChEMBL document CHEMBL2034898, “Inhibition of homologous recombination in human cells by targeting RAD51 recombinase” (J Med Chem, 2012)
Substitutions are numbered along the chain they refer to. The source made the active and inactive calls. The calls are words filed in the database; no cut-off is given here.

Legend:
[1] = target: T1, DNA repair protein RAD51 homolog 1 (Homo sapiens) (UniProt Q06609); assay: Inhibition of human RAD51 in HEK-GFP cells assessed as reduction in double-strand breaks-induced homologous recombination at 5 to 20 uM by chromosomally integrated DR-GFP reporter gene assay; assay type: cell-based
T1 sequence (whole entry): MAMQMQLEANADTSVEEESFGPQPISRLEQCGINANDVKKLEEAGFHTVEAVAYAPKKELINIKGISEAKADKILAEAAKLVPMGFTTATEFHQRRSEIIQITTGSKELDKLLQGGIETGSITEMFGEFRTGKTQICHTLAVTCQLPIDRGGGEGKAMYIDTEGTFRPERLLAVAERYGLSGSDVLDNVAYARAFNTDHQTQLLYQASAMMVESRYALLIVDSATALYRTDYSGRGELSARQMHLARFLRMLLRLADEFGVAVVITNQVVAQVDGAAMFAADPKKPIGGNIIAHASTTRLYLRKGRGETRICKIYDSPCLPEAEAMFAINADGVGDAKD

[2] = Lipophilicity, log P of the compound; assay type: physicochemical; conditions: octanol/water
[3] = target: T1, DNA repair protein RAD51 homolog 1 (Homo sapiens); assay: Inhibition of human RAD51-mediated DNA strand exchange at 5 to 20 uM using pBSK (+) gapped and linear dsDNA substrates by joint molecule formation assay
[4] = target: T2, DNA repair protein RAD51 homolog 1 (Mus musculus) (UniProt Q08297); conditions: MEF, 5 uM
T2 sequence (whole entry): T1 sequence (whole entry) with N10S, F46Y, A76T, A194G
Description: Inhibition of RAD51 in Tp53-/- MEF cells assessed as potentiation of 1 uM MMC-induced cytotoxicity at 5 uM incubated for 1 hr by clonogenic survival assay relative to untreated control

[5] = target: T1, DNA repair protein RAD51 homolog 1 (Homo sapiens); conditions: 20 uM
Description: Inhibition of dsDNA binding to human RAD51-ssDNA filament assessed as reduction in coaggregation formation at 20 uM in presence of 50 mM NaCl by dsDNA coaggregation assay

[6] = tested on: MEF; assay: Toxicity in MEF cells assessed as cell viability at 5 uM by incubated for 1 hr by clonogenic survival assay; assay type: cell-based; conditions: mouse
[7] = target: T3, Protein RecA (Escherichia coli K-12) (UniProt P0A7G6); assay: Inhibition of Escherichia coli RecA-mediated DNA strand exchange at 10 to 100 microM using pBSK (+) gapped and linear dsDNA substrates by joint molecule formation assay
T3 sequence (whole entry): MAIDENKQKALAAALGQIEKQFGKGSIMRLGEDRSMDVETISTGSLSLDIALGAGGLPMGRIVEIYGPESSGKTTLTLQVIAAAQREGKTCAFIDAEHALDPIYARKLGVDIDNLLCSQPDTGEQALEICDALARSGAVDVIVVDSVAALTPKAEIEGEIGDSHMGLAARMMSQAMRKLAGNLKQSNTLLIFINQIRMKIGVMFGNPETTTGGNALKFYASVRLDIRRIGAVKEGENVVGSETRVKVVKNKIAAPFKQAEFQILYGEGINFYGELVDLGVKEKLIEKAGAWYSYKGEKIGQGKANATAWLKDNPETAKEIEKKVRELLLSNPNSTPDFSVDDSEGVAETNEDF

[8] = target: T3, Protein RecA (Escherichia coli K-12); assay: Binding affinity to Escherichia coli RecA at 50 microM by SPR method
[9] = target: T1, DNA repair protein RAD51 homolog 1 (Homo sapiens); conditions: HEK293, 25 uM
Description: Inhibition of DNA binding to human RAD51 in irradiated HEK cells assessed as reduction in RAD51 foci formation at 25 uM by fluorescence microscopy relative to untreated control

[10] = target: T2, DNA repair protein RAD51 homolog 1 (Mus musculus); conditions: MEF, 5 uM; remark: listed apart in the source
Description: Inhibition of RAD51 in MEF cells assessed as potentiation of MMC-induced cytotoxicity at 5 uM incubated for 1 hr in presence of 0.01 uM PARP1 inhibitor AZD2281 by clonogenic survival assay relative to untreated control

[11] = target: T1, DNA repair protein RAD51 homolog 1 (Homo sapiens); conditions: HEK293, 5 uM
Description: Inhibition of RAD51 in HEK cells assessed as potentiation of cisplatin-induced cytotoxicity at 5 uM in presence of RAD51 siRNA transfected 40 hrs before compound and cisplatin exposure for 10 to 12 hrs by clonogenic survival assay relative to untreated control

[12] = tested on: MEF; assay: Toxicity in Tp53-/- MEF cells assessed as cell viability at 5 uM by incubated for 1 hr by clonogenic survival assay; assay type: cell-based; conditions: mouse
[13] = target: T2, DNA repair protein RAD51 homolog 1 (Mus musculus); conditions: MEF, 5 uM; remark: listed apart in the source
Description: Inhibition of RAD51 in Tp53-/- MEF cells assessed as potentiation of 32 uM cisplatin-induced cytotoxicity at 5 uM incubated for 1 hr by clonogenic survival assay relative to untreated control

[14] = target: T1, DNA repair protein RAD51 homolog 1 (Homo sapiens); conditions: 25 uM
Description: Inhibition of human RAD51 ATPase activity at 25 uM by ATP hydrolysis assay

[15] = target: T1, DNA repair protein RAD51 homolog 1 (Homo sapiens); conditions: 200 uM
Description: Inhibition of human RAD51 oligomerization at 200 uM by gel filtration method

[16] = target: T2, DNA repair protein RAD51 homolog 1 (Mus musculus); conditions: MEF, 5 uM; remark: listed apart in the source
Description: Inhibition of RAD51 in MEF cells assessed as potentiation of MMC-induced cytotoxicity at 5 uM incubated for 1 hr by clonogenic survival assay relative to untreated control

[17] = tested on: HEK-GFP; assay: Effect on GFP expression in HEK-GFP cells transfected with pMX-GFP plasmid by Western blotting; assay type: functional, cell-based; conditions: Homo sapiens
[18] = target: T1, DNA repair protein RAD51 homolog 1 (Homo sapiens); conditions: 25 uM; remark: listed apart in the source
Description: Inhibition of ssDNA binding to human RAD51 assessed as reduction in RAD51-90-mer ssDNA complex formation at 25 uM by EMSA method

[19] = tested on: HEK-GFP; assay: Effect on I-SceI expression in HEK-GFP cells by Western blotting; assay type: functional, cell-based; conditions: Homo sapiens
[20] = tested on: HEK-GFP; assay: Effect on RAD51 expression in HEK-GFP cells by Western blotting; assay type: functional, cell-based; conditions: Homo sapiens
[21] = target: T1, DNA repair protein RAD51 homolog 1 (Homo sapiens); conditions: HEK293, 5 uM; remark: listed apart in the source
Description: Inhibition of RAD51 in HEK cells assessed as potentiation of cisplatin-induced cytotoxicity at 5 uM in presence of RAD51 siRNA transfected 40 hrs before compound and cisplatin addition by clonogenic survival assay relative to untreated control

[22] = target: T3, Protein RecA (Escherichia coli K-12); assay: Inhibition of Escherichia coli RecA-mediated DNA branch migration at 10 to 100 microM using [32P]-labeled 5'-joint molecules after 8 hrs by branch migration assay
[23] = target: T1, DNA repair protein RAD51 homolog 1 (Homo sapiens); conditions: 20 uM; remark: listed apart in the source
Description: Inhibition of human RAD51-ssDNA filament formation at 20 uM added to free RAD51 prior to filament formation by D-loop formation assay

[24] = target: T1, DNA repair protein RAD51 homolog 1 (Homo sapiens); conditions: HEK293, 5 uM; remark: listed apart in the source
Description: Inhibition of RAD51 in HEK cells assessed as potentiation of cisplatin-induced cytotoxicity at 5 uM in presence of RAD51 siRNA transfected 40 hrs before compound and cisplatin exposure for 16 hrs by clonogenic survival assay relative to untreated control

In the case of `Cc1cc2nc3c(nc2cc1C)[C@@]1(C(=O)O)CCC3(C)C1(C)C`, the inhibition [1] was “inactive”, the logP [2] was 3.7 and the inhibition [3] was “inactive”.
With `O=c1c2ccccc2nc(/C=C/c2cccnc2)n1Cc1ccccc1` the inhibition [4] was “Active”, the inhibition [5] was “Active” and the Activity [6] was “Non-toxic”. The inhibition [7] was “inactive”, the Activity [8] was “inactive” and the inhibition [9] was “Active”. For the same molecule, the inhibition [10] was “Active”, the inhibition [11] was “Active” and the Activity [12] was “Non-toxic”. The inhibition [13] was “Active”, the inhibition [14] was “Active” and the inhibition [15] was “inactive”. For the same molecule, the inhibition [16] was “inactive”, the logP [2] was 3.7 and the Activity [17] was “inactive”. The inhibition [18] was “Active”, the Activity [19] was “inactive” and the Activity [20] was “inactive”. The inhibition [21] was “Active”, the inhibition [22] was “inactive” and the inhibition [23] was “Active”. The inhibition [24] was “Active”.
